SMILES strings stand for the structures.

From patent US20250289810A1, “Compounds As NLRP3 Inflammasome Inhibitors And Their Use As Medicaments” (MAM-AGE S.R.L., priority 2022, published 2025) come the findings set out here.

One data set concerns the target T1, NLRP3 inflammasome (Mus musculus, UniProt Q8R4B8).
T1 construct: bone marrow-derived macrophages (BMDMs) from wild type (WT) mice first primed with 1 μg/ml lipopolysaccharide (LPS); endogenous in cells; host or cells: primary BMDMs from wild type mice
As to the kind of experiment: Inhibition of NLRP3-mediated IL-1β release in BMDMs (LPS + Bz-ATP), ELISA. Type of data set: cell-based. Conditions: BMDM; BMDMs from WT mice, LPS + BzATP, compound at 1 μM; read-out: Inhibitory rate of IL-1β release. On the technique in general: In an ELISA, binding on a coated surface is turned into a signal by an enzyme label.

A further data set addresses T2, NLRC4 inflammasome (Mus musculus, UniProt Q3UP24).
T2 construct: endogenous in cells; host or cells: mouse BMDM, LPS-primed, transfected with S. typhimurium flagellin
As to the kind of experiment: NLRC4 inflammasome activation in LPS-primed BMDM transfected with flagellin of S. typhimurium (IL-1β ELISA). Type of data set: cell-based. The settings on record: LPS 100 ng/ml 3 hours, compound 1 μm 30 minutes, flagellin 100 ng/ml 2 hours. The procedure: The selectivity of compound 4 as an inhibitor of NLRP3 was then evaluated with respect to NLRC4 and absent in melanoma 2 (AIM2) inflammasomes. For activation of NLRC4 inflammasome, BMDM were treated with LPS (100 ng/ml) for 3 hours. Subsequently, the culture medium was removed and replaced with a serum-free medium containing compound 4 (1 μm for 30 minutes), finally the cells were transfected with flagellin (100 ng/ml) by S. typhimurium for 2 hours. The supernatant was tested by ELISA. […] The effect of the same compounds was examined on the non-NLR AIM2 inflammasome by transfecting BMDM with the dsDNS analogue Poly (dA:dT).
The selectivity of compounds 6c and 10 of Formula (III) as inhibitors of NLRP3 was then evaluated with respect to NLRC4 inflammasome. For activation of NLRC4 inflammasome, BMDM were treated with LPS (100 ng/ml) for 3 hours. Subsequently the culture medium was removed and replaced with a serum-free medium containing […] (1 μm for 30 minutes), finally the cells were transfected with flagellin (100 ng/ml) by S. typhimurium for 2 hours. The supernatant was tested by ELISA.

Another data set has as its system THP-1 cells. As to the kind of experiment: RealTime-Glo MT Cell Viability assay on THP-1 cells. Type of data set: cell-based, human. The settings on record: 1 μM, 48 hours. The procedure: (§1) Cell viability was evaluated on THP-1 cells using realtime-Glo” MT Cell Viability Assay (Promega Italia, MI). Briefly, the cells were seeded in a 96 multiwell (10×10^4 cells/well), treated with the selected compound of Formula (II), and incubated for 48 hours. After treatment, the cells were incubated for 10 minutes in the incubator with the realtime-Glo” reagent following protocol. The luminescence was measured every 12 hours in the Glomax Multi Detection System Promega. The luminescence signal correlates with the number of metabolically active cells.
as §1, with “compound,” for “compound of Formula (II),”, “cells. The results represent the mean luminescence values (RLU)±SEM.” for “cells.”

T1 sequence (Q8R4B8 whole entry): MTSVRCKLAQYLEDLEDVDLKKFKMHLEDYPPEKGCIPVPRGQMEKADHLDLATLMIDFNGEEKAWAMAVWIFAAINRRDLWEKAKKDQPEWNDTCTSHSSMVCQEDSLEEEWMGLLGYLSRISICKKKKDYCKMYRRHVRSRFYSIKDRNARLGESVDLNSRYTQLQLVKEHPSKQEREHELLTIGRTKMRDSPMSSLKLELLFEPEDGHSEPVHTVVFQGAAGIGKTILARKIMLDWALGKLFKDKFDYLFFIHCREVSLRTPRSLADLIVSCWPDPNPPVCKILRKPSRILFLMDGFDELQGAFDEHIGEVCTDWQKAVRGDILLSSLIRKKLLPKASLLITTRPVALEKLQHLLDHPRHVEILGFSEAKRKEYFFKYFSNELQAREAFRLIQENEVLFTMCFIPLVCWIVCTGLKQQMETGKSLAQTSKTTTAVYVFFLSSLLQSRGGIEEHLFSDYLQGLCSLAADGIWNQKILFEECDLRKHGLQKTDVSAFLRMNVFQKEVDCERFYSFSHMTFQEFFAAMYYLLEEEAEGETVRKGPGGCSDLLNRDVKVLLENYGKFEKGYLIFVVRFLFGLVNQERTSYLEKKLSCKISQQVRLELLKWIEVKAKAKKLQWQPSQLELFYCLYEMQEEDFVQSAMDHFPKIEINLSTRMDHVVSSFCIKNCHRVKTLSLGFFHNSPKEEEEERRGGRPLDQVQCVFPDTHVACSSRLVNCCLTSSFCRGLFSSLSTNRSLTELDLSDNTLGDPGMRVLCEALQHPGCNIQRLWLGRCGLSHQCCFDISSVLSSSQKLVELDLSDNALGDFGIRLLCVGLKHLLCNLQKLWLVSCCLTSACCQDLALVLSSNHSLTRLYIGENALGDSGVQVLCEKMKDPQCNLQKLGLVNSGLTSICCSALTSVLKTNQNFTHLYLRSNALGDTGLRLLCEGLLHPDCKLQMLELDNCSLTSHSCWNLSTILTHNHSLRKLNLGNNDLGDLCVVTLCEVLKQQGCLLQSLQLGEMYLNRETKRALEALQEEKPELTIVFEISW
T2 sequence (Q3UP24 whole entry): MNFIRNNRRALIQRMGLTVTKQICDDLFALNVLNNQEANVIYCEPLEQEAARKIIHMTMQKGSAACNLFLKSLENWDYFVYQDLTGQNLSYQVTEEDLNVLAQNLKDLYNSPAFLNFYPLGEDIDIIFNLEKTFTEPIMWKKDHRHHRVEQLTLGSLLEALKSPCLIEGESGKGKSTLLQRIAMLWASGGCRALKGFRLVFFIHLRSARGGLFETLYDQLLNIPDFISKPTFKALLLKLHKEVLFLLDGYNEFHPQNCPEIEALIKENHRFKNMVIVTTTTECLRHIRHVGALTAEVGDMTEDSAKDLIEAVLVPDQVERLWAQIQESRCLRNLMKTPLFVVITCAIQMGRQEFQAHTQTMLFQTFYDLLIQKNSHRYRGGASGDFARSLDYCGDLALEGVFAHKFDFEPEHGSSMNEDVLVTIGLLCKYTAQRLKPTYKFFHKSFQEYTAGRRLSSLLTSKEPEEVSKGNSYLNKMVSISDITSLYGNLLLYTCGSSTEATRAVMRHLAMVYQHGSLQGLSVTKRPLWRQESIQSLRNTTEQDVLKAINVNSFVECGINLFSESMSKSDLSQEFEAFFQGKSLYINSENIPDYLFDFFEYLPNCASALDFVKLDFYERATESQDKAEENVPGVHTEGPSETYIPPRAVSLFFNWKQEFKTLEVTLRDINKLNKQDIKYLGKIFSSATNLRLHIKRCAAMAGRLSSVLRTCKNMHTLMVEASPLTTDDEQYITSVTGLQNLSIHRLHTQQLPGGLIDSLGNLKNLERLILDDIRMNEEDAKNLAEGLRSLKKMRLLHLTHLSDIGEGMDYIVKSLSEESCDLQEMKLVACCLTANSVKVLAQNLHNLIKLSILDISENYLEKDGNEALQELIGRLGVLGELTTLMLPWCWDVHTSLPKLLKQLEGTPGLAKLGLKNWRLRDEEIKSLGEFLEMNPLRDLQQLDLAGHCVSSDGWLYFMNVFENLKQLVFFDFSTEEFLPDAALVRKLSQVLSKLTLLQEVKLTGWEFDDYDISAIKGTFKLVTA

Turning to `O=C(Nc1c2c(cc3c1CCC3)CCC2)C1CCCN1S(=O)(=O)c1ccc([N+](=O)[O-])cc1` (stereo not drawn) [Compound 3a of Formula (IV), N-(1,2,3,5,6,7-hexahydro-s-indacen-4-yl)-1-((4-nitrophenyl)sulfonyl)pyrrolidine-2-carboxamide], at NLRP3 inflammasome, the inhibition at 1 µM stood at 25.7%.

`O=C(Nc1c2c(cc3c1CCC3)CCC2)C1CCCCN1S(=O)(=O)c1ccc([N+](=O)[O-])cc1` (stereo not drawn) [Compound 3b of Formula (IV), N-(1,2,3,5,6,7-hexahydro-s-indacen-4-yl)-1-((4-nitrophenyl)sulfonyl)piperidine-2-carboxamide]: the inhibition at 1 µM at NLRP3 inflammasome came to 52.4%.

In the case of `Nc1ccc(S(=O)(=O)N2CCCC2C(=O)Nc2c3c(cc4c2CCC4)CCC3)cc1` (stereo not drawn) [Compound 4a of Formula (IV), 1-((4-aminophenyl)sulfonyl)-N-(1,2,3,5,6,7-hexahydro-s-indacen-4-yl)pyrrolidine-2-carboxamide], the inhibition at 1 µM at NLRP3 inflammasome amounted to 41.6%.

For `Nc1ccc(S(=O)(=O)N2CCCCC2C(=O)Nc2c3c(cc4c2CCC4)CCC3)cc1` (stereo not drawn) [Compound 4b of Formula (IV), 1-((4-aminophenyl)sulfonyl)-N-(1,2,3,5,6,7-hexahydro-s-indacen-4-yl)piperidine-2-carboxamide], at NLRP3 inflammasome, the inhibition at 1 µM turned out to be 25.4%. `CC(C)[C@H](NS(=O)(=O)c1ccc([N+](=O)[O-])cc1)C(=O)Nc1c2c(cc3c1CCC3)CCC2` [Compound 6c of Formula (III), (S)—N-(1,2,3,5,6,7-hexahydro-s-indacen-4-yl)-3-methyl-2-((4-nitrophenyl)sulfonamido)butanamide]: on NLRC4 inflammasome, the “Effect on activation of NLRC4 inflammasome triggered by flagellin S. typhimurium” value is given as “no effect”. The “Cytotoxicity / cell viability of THP-1 cells” value with THP-1 cells is “no cytotoxicity”. Consider `CC(C)C[C@H](NS(=O)(=O)c1ccc([N+](=O)[O-])cc1)C(=O)Nc1c2c(cc3c1CCC3)CCC2` [Compound 6e of Formula (III), (S)—N-(1,2,3,5,6,7-hexahydro-s-indacen-4-yl)-4-methyl-2-((4-nitrophenyl)sulfonamido)pentanamide], for which the inhibition at 1 µM on NLRP3 inflammasome turned out to be 53.9%. Consider `O=C(Nc1c2c(cc3c1CCC3)CCC2)[C@@H](NS(=O)(=O)c1ccc([N+](=O)[O-])cc1)c1ccccc1` [Compound 6f of Formula (III), (S)—N-(1,2,3,5,6,7-hexahydro-s-indacen-4-yl)-2-((4-nitrophenyl)sulfonamido)-2-phenylacetamide], for which the inhibition at 1 µM at NLRP3 inflammasome worked out at 44.8%.

Turning to `O=C(Nc1c2c(cc3c1CCC3)CCC2)[C@H](Cc1ccccc1)NS(=O)(=O)c1ccc([N+](=O)[O-])cc1` [Compound 6g of Formula (III), (S)—N-(1,2,3,5,6,7-hexahydro-s-indacen-4-yl)-2-((4-nitrophenyl)sulfonamido)-3-phenylpropanamide], the inhibition at 1 µM at NLRP3 inflammasome was determined as 19.8%. The same measure, in the same setting: the result for `O=C(Nc1c2c(cc3c1CCC3)CCC2)[C@@H](Cc1ccccc1)NS(=O)(=O)c1ccc([N+](=O)[O-])cc1` [Compound 6h of Formula (III), (R)—N-(1,2,3,5,6,7-hexahydro-s-indacen-4-yl)-2-((4-nitrophenyl)sulfonamido)-3-phenylpropanamide] reads 49.5%; that for `O=C(CCNS(=O)(=O)c1ccc([N+](=O)[O-])cc1)Nc1c2c(cc3c1CCC3)CCC2` [Compound 6k of Formula (III), N-(1,2,3,5,6,7-hexahydro-s-indacen-4-yl)-3-((4-nitrophenyl)sulfonamido)propanamide], 36.5%. As to `C[C@H](NS(=O)(=O)c1ccc(N)cc1)C(=O)Nc1c2c(cc3c1CCC3)CCC2` [Compound 7b of Formula (III), (S)-2-((4-aminophenyl)sulfonamido)-N-(1,2,3,5,6,7-hexahydro-s-indacen-4-yl)propanamide], on NLRP3 inflammasome, the inhibition at 1 µM came to 17.3%. Take `CC(C)[C@H](NS(=O)(=O)c1ccc(N)cc1)C(=O)Nc1c2c(cc3c1CCC3)CCC2` [Compound 7c of Formula (III), (S)-2-((4-aminophenyl)sulfonamido)-N-(1,2,3,5,6,7-hexahydro-s-indacen-4-yl)-3-methylbutanamide]: the inhibition at 1 µM on NLRP3 inflammasome came to 50.2%. For `CC(C)[C@@H](NS(=O)(=O)c1ccc(N)cc1)C(=O)Nc1c2c(cc3c1CCC3)CCC2` [Compound 7d of Formula (III), (R)-2-((4-aminophenyl)sulfonamido)-N-(1,2,3,5,6,7-hexahydro-s-indacen-4-yl)-3-methylbutanamide], the inhibition at 1 µM at NLRP3 inflammasome is 8.4%. With `CC(C)C[C@H](NS(=O)(=O)c1ccc(N)cc1)C(=O)Nc1c2c(cc3c1CCC3)CCC2` [Compound 7e of Formula (III), (S)-2-((4-aminophenyl)sulfonamido)-N-(1,2,3,5,6,7-hexahydro-s-indacen-4-yl)-4-methylpentanamide], the inhibition at 1 µM at NLRP3 inflammasome stood at 31.5%. With `Nc1ccc(S(=O)(=O)N[C@H](C(=O)Nc2c3c(cc4c2CCC4)CCC3)c2ccccc2)cc1` [Compound 7f of Formula (III), (S)-2-((4-aminophenyl)sulfonamido)-N-(1,2,3,5,6,7-hexahydro-s-indacen-4-yl)-2-phenylacetamide], the inhibition at 1 µM at NLRP3 inflammasome turned out to be 16.1%.

As for `Nc1ccc(S(=O)(=O)N[C@@H](Cc2ccccc2)C(=O)Nc2c3c(cc4c2CCC4)CCC3)cc1` [Compound 7g of Formula (III), (S)-2-((4-aminophenyl)sulfonamido)-N-(1,2,3,5,6,7-hexahydro-s-indacen-4-yl)-3-phenylpropanamide], the inhibition at 1 µM on NLRP3 inflammasome was determined as 38%.

On to `Nc1ccc(S(=O)(=O)N[C@H](Cc2ccccc2)C(=O)Nc2c3c(cc4c2CCC4)CCC3)cc1` [Compound 7h of Formula (III), (R)-2-((4-aminophenyl)sulfonamido)-N-(1,2,3,5,6,7-hexahydro-s-indacen-4-yl)-3-phenylpropanamide], for which the inhibition at 1 µM at NLRP3 inflammasome was 46.4%. As to `Nc1ccc(S(=O)(=O)NCCC(=O)Nc2c3c(cc4c2CCC4)CCC3)cc1` [Compound 7k of Formula (III), 3-((4-aminophenyl)sulfonamido)-N-(1,2,3,5,6,7-hexahydro-s-indacen-4-yl)propanamide], the inhibition at 1 µM on NLRP3 inflammasome came out at 22.3%.

For `O=C(Nc1c2c(cc3c1CCC3)CCC2)[C@H](Cc1ccc(O)cc1)NS(=O)(=O)c1ccc([N+](=O)[O-])cc1` [Compound 8 of Formula (III), (S)—N-(1,2,3,5,6,7-hexahydro-s-indacen-4-yl)-3-(4-hydroxyphenyl)-2-((4-nitrophenyl)sulfonamido)propanamide], the inhibition at 1 µM at NLRP3 inflammasome was 34.7%.

For the compound `NCCCC[C@H](NS(=O)(=O)c1ccc([N+](=O)[O-])cc1)C(=O)Nc1c2c(cc3c1CCC3)CCC2` [Compound 9 of Formula (III), (S)-6-amino-N-(1,2,3,5,6,7-hexahydro-s-indacen-4-yl)-2-((4-nitrophenyl)sulfonamido)hexanamide], at NLRP3 inflammasome, the inhibition at 1 µM came to 47.5%. For the compound `Nc1ccc(S(=O)(=O)N[C@@H](Cc2ccc(O)cc2)C(=O)Nc2c3c(cc4c2CCC4)CCC3)cc1` [Compound 10 of Formula (III), (S)-2-((4-aminophenyl)sulfonamido)-N-(1,2,3,5,6,7-hexahydro-s-indacen-4-yl)-3-(4-hydroxyphenyl)propanamide], the “Effect on activation of NLRC4 inflammasome triggered by flagellin S. typhimurium” value at NLRC4 inflammasome is on record as “no effect”. For the same compound, the “Cytotoxicity / cell viability of THP-1 cells” value with THP-1 cells was “no cytotoxicity”.

Consider `NCCCC[C@H](NS(=O)(=O)c1ccc(N)cc1)C(=O)Nc1c2c(cc3c1CCC3)CCC2` [Compound 11 of Formula (III), (S)-6-amino-2-((4-aminophenyl)sulfonamido)-N-(1,2,3,5,6,7-hexahydro-s-indacen-4-yl)hexanamide], for which the inhibition at 1 µM on NLRP3 inflammasome worked out at 28.4%.
